Test system: P12-Ichikawa
Experiment: cell viability relative to DMSO control; higher = less cytotoxic
Details: 48 h
Outline: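 NOMO1 or SEM (500 cells/well) or P12-Ichikawa (1000 cells/well) leukemia cells were adapted for at least four passages in each medium. They were seeded in 1536-well plates (5 μl) and pin-dosed with library compounds in DMSO over an 11-point threefold series, 47 μM to 0.79 nM. CellTiter-Glo One luminescence was read after 48 h at 37°C. Viability is the per-plate percentage relative to DMSO wells, with cell-free wells as background.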

[1] = HPLM + 10% dialyzed FBS, 0.000781 µM
[2] = HPLM + 10% dialyzed FBS, 0.00234 µM
[3] = HPLM + 10% dialyzed FBS, 0.00702 µM
[4] = HPLM + 10% dialyzed FBS, 0.0211 µM
[5] = HPLM + 10% dialyzed FBS, 0.0632 µM
[6] = HPLM + 10% dialyzed FBS, 0.19 µM
[7] = HPLM + 10% dialyzed FBS, 0.569 µM
[8] = HPLM + 10% dialyzed FBS, 1.71 µM
[9] = HPLM + 10% dialyzed FBS, 5.12 µM
[10] = HPLM + 10% dialyzed FBS, 15.4 µM
[11] = HPLM + 10% dialyzed FBS, 46.1 µM
[12] = RPMI 5 mM glucose + 10% FBS, 0.000781 µM
[13] = RPMI 5 mM glucose + 10% FBS, 0.00234 µM
[14] = RPMI 5 mM glucose + 10% FBS, 0.00702 µM
[15] = RPMI 5 mM glucose + 10% FBS, 0.0211 µM
[16] = RPMI 5 mM glucose + 10% FBS, 0.0632 µM
[17] = RPMI 5 mM glucose + 10% FBS, 0.19 µM
[18] = RPMI 5 mM glucose + 10% FBS, 0.569 µM
[19] = RPMI 5 mM glucose + 10% FBS, 1.71 µM
[20] = RPMI 5 mM glucose + 10% FBS, 5.12 µM
[21] = RPMI 5 mM glucose + 10% FBS, 15.4 µM
[22] = RPMI 5 mM glucose + 10% FBS, 46.1 µM
[23] = RPMI 5 mM glucose + 10% dialyzed FBS, 0.000781 µM
[24] = RPMI 5 mM glucose + 10% dialyzed FBS, 0.00234 µM
[25] = RPMI 5 mM glucose + 10% dialyzed FBS, 0.00702 µM
[26] = RPMI 5 mM glucose + 10% dialyzed FBS, 0.0211 µM
[27] = RPMI 5 mM glucose + 10% dialyzed FBS, 0.0632 µM
[28] = RPMI 5 mM glucose + 10% dialyzed FBS, 0.19 µM
[29] = RPMI 5 mM glucose + 10% dialyzed FBS, 0.569 µM
[30] = RPMI 5 mM glucose + 10% dialyzed FBS, 1.71 µM
[31] = RPMI 5 mM glucose + 10% dialyzed FBS, 5.12 µM
[32] = RPMI 5 mM glucose + 10% dialyzed FBS, 15.4 µM
[33] = RPMI 5 mM glucose + 10% dialyzed FBS, 46.1 µM

SMILES	cell viability [1] [%]	cell viability [2] [%]	cell viability [3] [%]	cell viability [4] [%]	cell viability [5] [%]	cell viability [6] [%]	cell viability [7] [%]	cell viability [8] [%]	cell viability [9] [%]	cell viability [10] [%]	cell viability [11] [%]	cell viability [12] [%]	cell viability [13] [%]	cell viability [14] [%]	cell viability [15] [%]	cell viability [16] [%]	cell viability [17] [%]	cell viability [18] [%]	cell viability [19] [%]	cell viability [20] [%]	cell viability [21] [%]	cell viability [22] [%]	cell viability [23] [%]	cell viability [24] [%]	cell viability [25] [%]	cell viability [26] [%]	cell viability [27] [%]	cell viability [28] [%]	cell viability [29] [%]	cell viability [30] [%]	cell viability [31] [%]	cell viability [32] [%]	cell viability [33] [%]
CC(C)(C)C(=O)OCOP(=O)(COCCn1cnc2c(N)ncnc21)OCOC(=O)C(C)(C)C	97.4	110	103	103	73.1	73.5	70.2	50.1	27.4	19	29.2	94.7	104	92.3	94.6	69.5	72.9	52.6	29.9	15	10.7	19.6	89.3	96.3	94.7	86.4	82.1	65	61.6	46.7	28.8	28.8	27.4
[NH2][Pt]([NH2])([Cl])[Cl]	99.2	105	95.1	90.3	102	96	97.6	98.2	101	98.2	105	86.2	92.8	95.6	98	101	101	90.7	94.3	89	90.8	95.5	88.4	94.6	85.2	92	91.1	95.6	92.2	87.6	98.8	88.4	85.2
O=C1Nc2ccc(Cl)cc2[C@@](C#CC2CC2)(C(F)(F)F)O1	81.8	91.9	90.5	90.6	90.2	91.1	91.1	92.1	96.2	95	80	78.3	94.4	78.6	76.2	85.5	83.1	91.6	85	84.5	85.1	55.4	73.8	77.7	80.5	88.6	80.8	85.1	78.4	77.7	79.8	79	61.8
COc1cc(C(C)=O)ccc1OCCCN1CCC(c2noc3cc(F)ccc23)CC1	118	115	119	127	124	127	129	124	129	125	120	–	–	–	–	–	–	–	–	–	–	–	–	–	–	–	–	–	–	–	–	–	–
CC(C)C[C@H](NC(=O)[C@@H](NC(=O)c1cccc(-c2ccccc2)n1)[C@@H](C)O)B(O)O	101	114	112	112	45.1	7.04	6.52	6.5	3.21	1.52	1.32	103	118	123	110	17.8	7.41	6.75	6.12	4.81	2.62	1.65	99.4	109	122	124	53.2	7.76	6.76	6.66	5.34	2.52	1.55
CC(=O)N1CCN(c2ccc(OC[C@H]3CO[C@](Cn4ccnc4)(c4ccc(Cl)cc4Cl)O3)cc2)CC1	118	120	118	112	108	121	114	105	104	94	63.2	–	–	–	–	–	–	–	–	–	–	–	109	107	110	107	113	106	101	101	94	96.7	68.2
NC1=NC=C(C=C1)C2=CC=C3N=CC\4=C(N(C(=O)\C=C4)C5=CC(=CC=C5)C(F)(F)F)C3=C2	81.4	82.7	76.7	66.7	58.6	41.1	42.6	34.5	11.6	14	15.7	67.1	64.9	56.3	51.8	50.4	34	33.4	27.2	7.23	7.38	11.5	64.4	74.4	59.6	52.7	50.3	32.9	30.4	23.7	7.6	7.89	12.4
C[C@@H](O)[C@@H]1[C@H]2[C@@H](C)\C(=C(/N2C1=O)C(=O)OCOC(=O)C(C)(C)C)SC3CN(C3)/C4=N/CCS4	95.2	107	110	111	112	108	111	112	112	116	109	78.9	102	108	100	109	104	107	111	107	111	103	97.3	106	109	118	107	108	109	102	111	111	111
